Experimental data as given in PubChem BioAssay AID686920 (Broad Institute, 2013).
The source made the active and inactive calls.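 How the source made its calls: active means fitted curve reaching 35% inhibition at a dose no higher than twice the top valid tested dose; inconclusive means flat fit with 30 to 70% inhibition, or a poor fit; inactive means the rest, including activity in the opposite direction.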

System: A673 NR0B1-luciferase reporter, viability-normalised luminescence
Test: suppressors of NR0B1-promoter luciferase reporter, dose response, EWS/Fli inhibitor project, luciferase luminescence, A673 cells, cherry-pick (AID 686920)
Conditions: not given
In the case of `C[C@@H]1CN([C@@H](C)CO)C(=O)c2cccc(NC(=O)Nc3cccc4ccccc34)c2O[C@@H]1CN(C)Cc1ccc(C(=O)Nc2ccccc2N)cc1`, the AC35 is reported as 10.2 µM.
With `C=CCn1c(O)c(N=Nc2ccccc2)c2ccccc21` the AC35 was 38.9 µM.
`C[C@@H]1CN([C@H](C)CO)C(=O)c2cc(NC(=O)c3ccccc3)ccc2O[C@@H](C)CCCCO[C@H]1CN(C)C(=O)Nc1cccc2ccccc12` gave an AC35 of 2.07 µM.
With `C[C@H]1CN([C@@H](C)CO)C(=O)Cc2cc(NC(=O)CCCCCC(=O)Nc3ccccc3N)ccc2O[C@H]1CN(C)Cc1ccc(Oc2ccccc2)cc1` the AC35 was 5.63 µM.
`CN1c2ccc(-c3ccc(C#N)cc3)cc2[C@H]2[C@H](CCN2S(=O)(=O)c2cccc(F)c2)[C@@H]1CO` showed an AC35 of 4.64 µM.
`Cc1ccc(S(=O)(=O)Nc2ccc3c(c2)C(=O)N([C@H](C)CO)C[C@@H](C)[C@@H](CN(C)Cc2ccc(C(=O)Nc4ccccc4N)cc2)O3)cc1` gave an AC35 of 9.6 µM.
`CC(C)(C)c1ccc(/C=N/Nc2ccc(C(=O)O)cc2)cc1` showed an AC35 of 2.22 µM.
Work on `C[C@@H]1CN([C@@H](C)CO)S(=O)(=O)c2ccc(C#Cc3ccncc3)cc2O[C@H]1CN(C)C(=O)C1CCOCC1` yielded an AC35 of 49.8 µM.
For `CC1(C)N=C(N)N=C(N)N1c1ccc(OCCCOc2ccccc2)c(Cl)c1`, the AC35 was 2.61 µM.
Compound `C[C@@H]1CN([C@@H](C)CO)C(=O)Cc2cc(N(C)C)ccc2O[C@H]1CN(C)Cc1ccc(C(=O)Nc2ccccc2N)cc1` has an AC35 of 11.4 µM.

System: not listed separately
Test: as above
Conditions: A673 NR0B1-luciferase reporter, viability-normalised luminescence; at 7.5 µM (top of the series)
In the case of `O=C(CCCCl)Nc1nc(-c2ccc3c(c2)OCCO3)cs1`, the activity change, negative = inhibition is reported as 80% (inactive).

Same assay, conditions: A673 NR0B1-luciferase reporter, viability-normalised luminescence; at 21 µM (top of the series)
In the case of `COCc1cc(C)nc2sc(C(=O)NCCO)c(-n3cccc3)c12`, the activity change, negative = inhibition is reported as 112% (inactive).
For `Cc1ccc(Cc2c(-c3ccco3)nc3c(C)cc(Br)cn23)cc1`, the activity change, negative = inhibition was 77.8% (inactive).
In the case of `O=C1CCCC2=C1C(c1ccccn1)Nc1ccc(C(=O)c3ccccc3)cc1N2` (centres undefined), the activity change, negative = inhibition is reported as 8.98% (inactive).
With `COC(=O)C[C@@H]1CC[C@@H]2[C@@H](COc3ccc(NC(=O)Nc4cccc(F)c4)cc3C(=O)N2C)O1` the activity change, negative = inhibition was -4.28% (inactive).
For `COc1cc(C(c2c(C)[nH][nH]c2=O)c2c(C)[nH][nH]c2=O)ccc1OC(C)C`, the activity change, negative = inhibition was 28.1% (inactive).

Same assay, conditions: A673 NR0B1-luciferase reporter, viability-normalised luminescence; at 68 µM (top of the series)
In the case of `CCS(=O)(=O)N1Cc2ccccc2CC1C(=O)Nc1nnc(SCc2ccc(C#N)cc2)s1` (centres undefined), the activity change, negative = inhibition is reported as -0.731% (inactive).
With `Cc1ccccc1N=Nc1c(O)n(C)c2ccccc12` the activity change, negative = inhibition was -31.3% (inactive).
In the case of `CN(C)C(=S)N=Nc1[nH]c2ccccc2c1O`, the activity change, negative = inhibition is reported as 13% (inactive).
With `CCc1ccc(Cn2ncc3c(C(=O)O)cc(C)nc32)cc1` the activity change, negative = inhibition was 13.8% (inactive).
In the case of `CCCc1nc2ccc(NC(=O)c3cccs3)cc2c(=O)n1Cc1ccccc1Cl`, the activity change, negative = inhibition is reported as 5.64% (inactive).
For `Nc1ccn([C@@H]2O[C@H](CO)[C@@H](O)C2O)c(=O)n1` (some centres undefined), the activity change, negative = inhibition was -31.3% (inactive).
In the case of `Brc1ccc(CSc2nnc(-c3ccco3)o2)cc1`, the activity change, negative = inhibition is reported as 86.7% (inactive).
In the case of `COC(=O)C[C@@H]1CC[C@@H]2[C@@H](COc3ccc(NC(=O)Nc4cccc(Cl)c4)cc3C(=O)N2C)O1`, the activity change, negative = inhibition is reported as -7.4% (inactive).
In the case of `COC(=O)C[C@H]1CC[C@H]2[C@@H](COc3ccc(NC(=O)Nc4cccc(Cl)c4)cc3C(=O)N2C)O1`, the activity change, negative = inhibition is reported as 18.6% (inactive).
In the case of `CN(C)C(=O)c1ccc(-c2ccccc2[C@@H]2[C@@H](CO)N(C(=O)C3CC3)[C@H]2C#N)cc1`, the activity change, negative = inhibition is reported as -1.25% (inactive).
With `CC1(CCc2ccccc2)NC(=O)N(CC(=O)N2CC(=O)Nc3ccccc32)C1=O` (centres undefined) the activity change, negative = inhibition was 6.97% (inactive).
For `CN(C(=O)COC(=O)c1cc(-c2ccccc2Cl)nc2ccccc12)C1CCS(=O)(=O)C1` (centres undefined), the activity change, negative = inhibition was 9.88% (inactive).
With `CCCCOc1ccc(NC(=O)C(=O)NCCCn2ccnc2)cc1` the activity change, negative = inhibition was -0.492% (inactive).
In the case of `C(=C\c1ccc(C2[C@H]3CNC[C@@H]2N3Cc2ccccn2)cc1)/c1ccccc1` (some centres undefined), the activity change, negative = inhibition is reported as 32.3% (inactive).
For `COc1ccc(C/C(N)=N/OC(C)=O)cc1OC`, the activity change, negative = inhibition was 13.8% (inactive).
For `COC(=O)C[C@H]1CC[C@@H](NC(=O)Nc2ccc(C(F)(F)F)cc2)[C@H](CO)O1`, the activity change, negative = inhibition was 16.7% (inactive).
For `COC(=O)C(CC#Cc1ccc2c(c1)[C@]1(C(=O)N2)[C@H](c2ccc(OCCO)cc2)N2[C@H](c3ccccc3)[C@H](c3ccccc3)OC(=O)[C@H]2[C@@H]1C(=O)N1CCN(c2ncccn2)CC1)C(=O)OC`, the activity change, negative = inhibition was 0.883% (inactive).
In the case of `Nc1ncn([C@@H]2O[C@H](CO)[C@@H](O)[C@H]2O)c(=O)n1`, the activity change, negative = inhibition is reported as -32.1% (inactive).
In the case of `c1cncc(-c2ccc([C@@H]3[C@H]4CNC[C@@H]3N4CC3CCOCC3)cc2)c1`, the activity change, negative = inhibition is reported as -7.31% (inactive).
For `CN(C)Cc1c(O)ccc2c1O/C(=C\C=C\c1ccccc1)C2=O`, the activity change, negative = inhibition was 5.05% (inactive).
In the case of `COC(=O)C[C@@H]1CC[C@@H]2[C@H](COc3ccc(NC(=O)c4ccc(F)cc4)cc3C(=O)N2C)O1`, the activity change, negative = inhibition is reported as -47% (inactive).
For `C/C(=N\N(c1ccccc1)c1ccccc1)c1ccco1`, the activity change, negative = inhibition was -1.23% (inactive).
For `CCOc1cc2[nH]c(=S)n(Cc3ccc(C(=O)N4CCN(C)CC4)cc3)c(=O)c2cc1OCC`, the activity change, negative = inhibition was 20% (inactive).
